Among the data in US20240246940A1, “HETEROARYL DERIVATIVE COMPOUND AND USE THEREOF” (VORONOI INC., priority 2021, published 2024) are GI50 values, retold here.

Where only a bound is given, the exact number is not on record here.

Assay [1] has as its system SK-BR-3 cells (HER2 overexpressing cell line). Description: SK-BR-3 cell proliferation inhibitory activity (CellTiter-Glo, 120 hours). The assay is classed as cell-based. To be noted: Homo sapiens. The method, boiled down:
(§1)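 GI50 values derive from luminescence-based live-cell counts, expressed relative to control growth. Final compound ranges were 0.2 nM–10 μM for the two breast lines, […]–5 μM in N-87 and 0.8 nM–45 μM in HaCaT. Tests were run three times.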
(Cellular ATP, detected with luciferase, serves as a proxy for viable cell number.)

For assay [2], the system named is HaCaT cells (EGFR expressing cell line). Description: HaCaT cell proliferation inhibitory activity (CellTiter-Glo, 72 hours). Format: cell-based. To be noted: Homo sapiens. Summed up:
as §1

Turning to `C=CC(=O)N1CC(Oc2cc3c(Nc4cc(-c5cccs5)ccc4OC4CCOCC4)ncnc3cc2OC)C1` [Example 248, 1-(3-((7-methoxy-4-((2-((tetrahydro-2H-pyran-4-yl)oxy)-5-(thiophen-2-yl)phenyl)amino)quinazolin-6-yl)oxy)azetidin-1-yl)prop-2-en-1-one], the GI50 in assay [1] and in assay [2] was at most 0.15 µM in each case.

As for `C=CC(=O)N1CC(Oc2cc3c(Nc4cc(-c5ccco5)ccc4OC4CCOCC4)ncnc3cc2OC)C1` [Example 249, 1-(3-((4-((5-(furan-2-yl)-2-((tetrahydro-2H-pyran-4-yl)oxy)phenyl)amino)-7-methoxyquinazolin-6-yl)oxy)azetidin-1-yl)prop-2-en-1-one], the concentration for 50% growth inhibition (GI50) (usually the concentration at which growth is held to half of that of the control) in assay [1] is 0.15 to 1 µM; in assay [2], at most 0.15 µM.

Turning to `C=CC(=O)N1CCC(Oc2cc3c(Nc4cc(-c5cccs5)ccc4OC4CCN(C)C4)ncnc3cc2OC)CC1` (stereo not shown) [Example 250, 1-(4-((7-methoxy-4-((2-((1-methylpyrrolidin-3-yl)oxy)-5-(thiophen-2-yl)phenyl)amino)quinazolin-6-yl)oxy)piperidin-1-yl)prop-2-en-1-one], the concentration for 50% growth inhibition (GI50) in assay [1] and in assay [2] was at most 0.15 µM throughout.

On to `C=CC(=O)N1CCC(Oc2cc3c(Nc4cc(-c5ccco5)ccc4OC4CCN(C)C4)ncnc3cc2OC)CC1` (stereo not shown) [Example 251, 1-(4-((4-((5-(furan-2-yl)-2-((1-methylpyrrolidin-3-yl)oxy)phenyl)amino)-7-methoxyquinazolin-6-yl)oxy)piperidin-1-yl)prop-2-en-1-one], for which the GI50 in assay [1] and in assay [2] was at most 0.15 µM in each case.

For the compound `C=CC(=O)N1CCC(Oc2cc3c(Nc4cc(-c5ccco5)ccc4OC4CC4)ncnc3cc2OC)CC1` [Example 253, 1-(4-((4-((2-cyclopropoxy-5-(furan-2-yl)phenyl)amino)-7-methoxyquinazolin-6-yl)oxy)piperidin-1-yl)prop-2-en-1-one], the GI50 in assay [1] and in assay [2] was at most 0.15 µM throughout.

Take `C=CC(=O)N1CCC(Oc2cc3c(Nc4cc(-c5ccco5)ccc4OC4COC4)ncnc3cc2OC)CC1` [Example 255, 1-(4-((4-((5-(furan-2-yl)-2-(oxetan-3-yloxy)phenyl)amino)-7-methoxyquinazolin-6-yl)oxy)piperidin-1-yl)prop-2-en-1-one]: the 50% growth inhibitory concentration (GI50) in assay [1] and in assay [2] was at most 0.15 µM in each case.

In the case of `C=CC(=O)N1CCC(Oc2cc3c(Nc4cc(-c5cccs5)ccc4OC4CCOCC4)ncnc3cc2OC)CC1` [Example 257, 1-(4-((7-methoxy-4-((2-((tetrahydro-2H-pyran-4-yl)oxy)-5-(thiophen-2-yl)phenyl)amino)quinazolin-6-yl)oxy)piperidin-1-yl)prop-2-en-1-one], the GI50 in assay [1] was 0.15 to 1 µM; in assay [2], at most 0.15 µM.

With `C=CC(=O)N1CCC(Oc2cc3c(Nc4cc(-c5ccco5)ccc4OC4CCOCC4)ncnc3cc2OC)CC1` [Example 258, 1-(4-((4-((5-(furan-2-yl)-2-((tetrahydro-2H-pyran-4-yl)oxy)phenyl)amino)-7-methoxyquinazolin-6-yl)oxy)piperidin-1-yl)prop-2-en-1-one], the GI50 in assay [1] was 0.15 to 1 µM; in assay [2], at most 0.15 µM.

On to `C=CC(=O)N1CCC(Oc2cc3c(Nc4cc(-c5ccco5)ccc4OCCOC)ncnc3cc2OC)CC1` [Example 259, 1-(4-((4-((5-(furan-2-yl)-2-(2-methoxyethoxy)phenyl)amino)-7-methoxyquinazolin-6-yl)oxy)piperidin-1-yl)prop-2-en-1-one], for which the 50% growth inhibitory concentration (GI50) in assay [1] and in assay [2] was at most 0.15 µM throughout.

`C=CC(=O)N1CCC(Nc2cc3c(Nc4cc(-c5ccco5)ccc4OC)ncnc3cc2OCCOC)CC1` [Example 262, 1-(4-((4-((5-(furan-2-yl)-2-methoxyphenyl)amino)-7-(2-methoxyethoxy)quinazolin-6-yl)amino)piperidin-1-yl)prop-2-en-1-one]: the concentration for 50% growth inhibition (GI50) in assay [1] and in assay [2] was at most 0.15 µM each time.

In the case of `C=CC(=O)N1CCC(Nc2cc3c(Nc4cc(-c5ccc(F)cc5F)ccc4OC)ncnc3cc2OCCCN2CCOCC2)CC1` [Example 269, 1-(4-((4-((2′,4′-difluoro-4-methoxy-[1,1′-biphenyl]-3-yl)amino)-7-(3-morpholinopropoxy)quinazolin-6-yl)amino)piperidin-1-yl)prop-2-en-1-one], the GI50 in assay [1] and in assay [2] was at most 0.15 µM in each case.

`C=CC(=O)Nc1cc2c(Nc3cc(-c4ccco4)ccc3OC)ncnc2cc1OCCN1CCOCC1` [Example 271, N-(4-((5-(furan-2-yl)-2-methoxyphenyl)amino)-7-(2-morpholinoethoxy)quinazolin-6-yl)acrylamide]: the GI50 in assay [1] and in assay [2] was at most 0.15 µM throughout.

`C=CC(=O)N1CCC(Nc2cc3c(Nc4cc(-c5ccco5)ccc4OC)ncnc3cc2OCCN2CCOCC2)CC1` [Example 272, 1-(4-((4-((5-(furan-2-yl)-2-methoxyphenyl)amino)-7-(2-morpholinoethoxy)quinazolin-6-yl)amino)piperidin-1-yl)prop-2-en-1-one]: the GI50 in assay [1] and in assay [2] was at most 0.15 µM in each case.

As to `C=CC(=O)Nc1cc2c(Nc3cc(-c4ccco4)ccc3OC)ncnc2cc1OCCCOC` [Example 273, N-(4-((5-(furan-2-yl)-2-methoxyphenyl)amino)-7-(3-methoxypropoxy)quinazolin-6-yl)acrylamide], the concentration for 50% growth inhibition (GI50) in assay [1] and in assay [2] was at most 0.15 µM throughout.

On to `C=CC(=O)N1CCC(Nc2cc3c(Nc4cc(-c5ccco5)ccc4OC)ncnc3cc2OCCCOC)CC1` [Example 274, 1-(4-((4-((5-(furan-2-yl)-2-methoxyphenyl)amino)-7-(3-methoxypropoxy)quinazolin-6-yl)amino)piperidin-1-yl)prop-2-en-1-one], for which the GI50 in assay [1] and in assay [2] was at most 0.15 µM in each case.

Consider `C=CC(=O)Nc1cc2c(Nc3cc(-c4ccco4)ccc3OC)ncnc2cc1OCCOC` [Example 275, N-(4-((5-(furan-2-yl)-2-methoxyphenyl)amino)-7-(2-methoxyethoxy)quinazolin-6-yl)acrylamide], for which the GI50 in assay [1] and in assay [2] was at most 0.15 µM each time.

Take `C=CC(=O)Nc1cc2c(Nc3cc(-c4ccco4)ccc3OC)ncnc2cc1OCCCN1CCOCC1` [Example 277, N-(4-((5-(furan-2-yl)-2-methoxyphenyl)amino)-7-(3-morpholinopropoxy)quinazolin-6-yl)acrylamide]: the 50% growth inhibitory concentration (GI50) in assay [1] and in assay [2] was at most 0.15 µM in each case.

For `C=CC(=O)N1CCC(Nc2cc3c(Nc4cc(-c5ccco5)ccc4OC)ncnc3cc2O[C@H]2CCOC2)CC1` [Example 279, (S)-1-(4-((4-((5-(furan-2-yl)-2-methoxyphenyl)amino)-7-((tetrahydrofuran-3-yl)oxy)quinazolin-6-yl)amino)piperidin-1-yl)prop-2-en-1-one], the GI50 in assay [1] and in assay [2] was at most 0.15 µM throughout.

On to `C=CC(=O)N1CCC(Nc2cc3c(Nc4cc(-c5ccco5)ccc4OC)ncnc3cc2O[C@@H]2CCOC2)CC1` [Example 280, (R)-1-(4-((4-((5-(furan-2-yl)-2-methoxyphenyl)amino)-7-((tetrahydrofuran-3-yl)oxy)quinazolin-6-yl)amino)piperidin-1-yl)prop-2-en-1-one], for which the 50% growth inhibitory concentration (GI50) in assay [1] and in assay [2] was at most 0.15 µM each time.

For `C=CC(=O)N1CCC(Nc2cc3c(Nc4cc(-c5ccc(F)cc5F)ccc4OC)ncnc3cc2O[C@@H]2CCOC2)CC1` [Example 282, (R)-1-(4-((4-((2′,4′-difluoro-4-methoxy-[1,1′-biphenyl]-3-yl)amino)-7-((tetrahydrofuran-3-yl)oxy)quinazolin-6-yl)amino)piperidin-1-yl)prop-2-en-1-one], the concentration for 50% growth inhibition (GI50) in assay [1] and in assay [2] was at most 0.15 µM each time.

On to `C=CC(=O)Nc1cc2c(Nc3cc(-c4ccn5ncnc5c4)ccc3OC)ncnc2cc1OC` [Example 287, N-(4-((5-([1,2,4]triazolo[1,5-a]pyridin-7-yl)-2-methoxyphenyl)amino)-7-methoxyquinazolin-6-yl)acrylamide], for which the GI50 in assay [1] is at most 0.15 µM; in assay [2], over 1 µM.

As for `C=CC(=O)Nc1cc2c(Nc3cc(-c4ccc5occc5c4)ccc3OC)ncnc2cc1OC` [Example 288, N-(4-((5-(benzofuran-5-yl)-2-methoxyphenyl)amino)-7-methoxyquinazolin-6-yl)acrylamide], the GI50 in assay [1] is 0.15 to 1 µM; in assay [2], over 1 µM.

With `C=CC(=O)Nc1cc2c(Nc3cc(-c4ccco4)ccc3OC)ncnc2cc1OC` [Example 289, N-(4-((5-(furan-2-yl)-2-methoxyphenyl)amino)-7-methoxyquinazolin-6-yl)acrylamide], the GI50 in assay [1] and in assay [2] was at most 0.15 µM throughout.

On to `C=CC(=O)Nc1cc2c(Nc3cc(-c4ccoc4C)ccc3OC)ncnc2cc1OC` [Example 290, N-(7-methoxy-4-((2-methoxy-5-(2-methylfuran-3-yl)phenyl)amino)quinazolin-6-yl)acrylamide], for which the concentration for 50% growth inhibition (GI50) is 0.15 to 1 µM in assay [1] and at most 0.15 µM in assay [2].

Take `C=CC(=O)Nc1cc2c(Nc3cc(-c4ccco4)ccc3OC)c(C#N)cnc2cc1OCC` [Example 291, N-(3-cyano-7-ethoxy-4-((5-(furan-2-yl)-2-methoxyphenyl)amino)quinolin-6-yl)acrylamide]: the concentration for 50% growth inhibition (GI50) is over 1 µM in assay [1] and at most 0.15 µM in assay [2].

`C=CC(=O)N1CC2(C1)CN(c1cc3c(Nc4cc(-c5ccco5)ccc4OC)ncnc3cc1OC)C(=O)O2` [Example 330, 2-acryloyl-7-(4-((5-(furan-2-yl)-2-methoxyphenyl)amino)-7-methoxyquinazolin-6-yl)-5-oxa-2,7-diazaspiro[3.4]octan-6-one]: the concentration for 50% growth inhibition (GI50) in assay [1] and in assay [2] was 0.15 to 1 µM each time.
